Assays:
DAPK1 = DAPK1 (Homo sapiens (Human), UniProt P53355); experiment: Kinase profiling, 33P ATP filter binding assay; format: biochemical; details: 1 micromolar inhibitor concentration, read-out: percentage inhibition
PAK6 = PAK6 (Homo sapiens (Human), UniProt Q9NQU5); experiment: Kinase profiling, 33P ATP filter binding assay; format: biochemical; details: 1 micromolar inhibitor concentration, read-out: percentage inhibition
MLK1 = MLK1 (Homo sapiens (Human), UniProt P80192); experiment: Kinase profiling, 33P ATP filter binding assay; format: biochemical; details: 1 micromolar inhibitor concentration, read-out: percentage inhibition
Sequence of MLK1 (P80192 whole entry, species assumed): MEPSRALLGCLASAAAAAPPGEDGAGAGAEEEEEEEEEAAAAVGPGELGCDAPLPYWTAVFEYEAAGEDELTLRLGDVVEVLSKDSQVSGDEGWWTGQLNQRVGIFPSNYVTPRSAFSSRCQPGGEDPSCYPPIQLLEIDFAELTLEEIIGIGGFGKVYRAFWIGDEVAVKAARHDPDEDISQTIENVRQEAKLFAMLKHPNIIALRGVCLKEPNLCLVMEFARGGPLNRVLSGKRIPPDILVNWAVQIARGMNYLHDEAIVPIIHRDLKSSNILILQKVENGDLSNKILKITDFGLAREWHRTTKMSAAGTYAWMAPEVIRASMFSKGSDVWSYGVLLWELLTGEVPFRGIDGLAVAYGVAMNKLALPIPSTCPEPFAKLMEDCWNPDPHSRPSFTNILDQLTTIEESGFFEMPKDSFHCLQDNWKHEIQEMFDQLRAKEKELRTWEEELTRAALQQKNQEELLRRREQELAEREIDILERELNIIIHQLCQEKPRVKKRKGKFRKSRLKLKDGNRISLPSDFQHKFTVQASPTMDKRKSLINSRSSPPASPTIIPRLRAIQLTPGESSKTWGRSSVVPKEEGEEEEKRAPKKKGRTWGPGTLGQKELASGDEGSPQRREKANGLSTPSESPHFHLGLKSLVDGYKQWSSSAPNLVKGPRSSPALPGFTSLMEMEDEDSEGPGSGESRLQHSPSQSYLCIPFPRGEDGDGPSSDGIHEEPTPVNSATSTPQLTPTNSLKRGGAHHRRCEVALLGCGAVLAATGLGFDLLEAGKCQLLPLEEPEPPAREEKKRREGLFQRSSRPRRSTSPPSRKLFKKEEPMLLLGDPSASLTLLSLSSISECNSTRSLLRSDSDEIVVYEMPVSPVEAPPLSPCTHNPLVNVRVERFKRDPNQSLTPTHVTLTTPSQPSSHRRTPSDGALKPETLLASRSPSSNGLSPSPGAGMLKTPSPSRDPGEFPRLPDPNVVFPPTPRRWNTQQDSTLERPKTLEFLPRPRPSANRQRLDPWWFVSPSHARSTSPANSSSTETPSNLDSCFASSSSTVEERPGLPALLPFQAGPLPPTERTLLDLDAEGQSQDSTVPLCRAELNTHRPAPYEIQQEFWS

ZAP70 = ZAP70 (Homo sapiens (Human), UniProt P43403); experiment: Kinase profiling, 33P ATP filter binding assay; format: biochemical; details: 1 micromolar inhibitor concentration, read-out: percentage inhibition
Sequence of ZAP70 (P43403 whole entry, species assumed): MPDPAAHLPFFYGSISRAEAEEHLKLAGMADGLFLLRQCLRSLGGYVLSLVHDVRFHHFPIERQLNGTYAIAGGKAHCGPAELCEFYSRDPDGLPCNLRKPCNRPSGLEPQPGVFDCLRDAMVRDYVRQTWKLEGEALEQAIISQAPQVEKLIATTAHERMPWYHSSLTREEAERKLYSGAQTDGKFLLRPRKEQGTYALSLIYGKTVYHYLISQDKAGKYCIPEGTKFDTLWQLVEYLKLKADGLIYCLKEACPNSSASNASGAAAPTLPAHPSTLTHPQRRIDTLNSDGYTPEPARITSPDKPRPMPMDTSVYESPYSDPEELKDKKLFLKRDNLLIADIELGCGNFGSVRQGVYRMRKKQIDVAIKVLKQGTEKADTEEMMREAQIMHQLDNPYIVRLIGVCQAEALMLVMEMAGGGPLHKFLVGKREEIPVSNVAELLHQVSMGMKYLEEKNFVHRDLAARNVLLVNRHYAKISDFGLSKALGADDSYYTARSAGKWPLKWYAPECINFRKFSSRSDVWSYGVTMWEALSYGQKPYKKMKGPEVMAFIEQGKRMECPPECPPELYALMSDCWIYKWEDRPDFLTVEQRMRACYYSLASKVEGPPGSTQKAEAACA

DDR2 = DDR2 (Homo sapiens (Human), UniProt Q16832); experiment: Kinase profiling, 33P ATP filter binding assay; format: biochemical; details: 1 micromolar inhibitor concentration, read-out: percentage inhibition
Sequence of DDR2 (Q16832 22-855, species assumed): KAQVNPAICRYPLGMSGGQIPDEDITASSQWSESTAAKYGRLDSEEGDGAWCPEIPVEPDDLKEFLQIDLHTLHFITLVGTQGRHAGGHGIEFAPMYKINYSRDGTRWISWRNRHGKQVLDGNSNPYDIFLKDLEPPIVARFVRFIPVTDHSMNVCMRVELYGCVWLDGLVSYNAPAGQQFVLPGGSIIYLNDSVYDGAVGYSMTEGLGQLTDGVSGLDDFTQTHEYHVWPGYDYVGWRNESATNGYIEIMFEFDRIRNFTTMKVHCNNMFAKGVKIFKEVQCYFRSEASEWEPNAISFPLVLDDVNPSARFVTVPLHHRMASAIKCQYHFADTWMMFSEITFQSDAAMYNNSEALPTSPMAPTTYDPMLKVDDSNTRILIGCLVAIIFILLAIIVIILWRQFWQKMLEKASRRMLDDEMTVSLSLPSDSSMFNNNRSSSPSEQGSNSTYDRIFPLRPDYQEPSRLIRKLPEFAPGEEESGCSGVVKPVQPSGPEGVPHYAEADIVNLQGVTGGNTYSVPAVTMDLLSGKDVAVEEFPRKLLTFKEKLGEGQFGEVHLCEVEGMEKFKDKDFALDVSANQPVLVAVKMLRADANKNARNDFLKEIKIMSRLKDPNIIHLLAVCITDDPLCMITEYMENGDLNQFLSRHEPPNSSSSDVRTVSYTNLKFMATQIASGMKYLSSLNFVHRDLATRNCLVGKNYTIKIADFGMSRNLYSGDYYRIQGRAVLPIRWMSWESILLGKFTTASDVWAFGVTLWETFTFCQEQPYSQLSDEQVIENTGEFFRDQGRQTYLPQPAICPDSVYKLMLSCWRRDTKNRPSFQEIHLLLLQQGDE

[1] = test system: tau/MAPT phosphorylation in TS21 neurons; experiment: Tau/MAPT phosphorylation in TS21 neuronal cultures, Western blotting; format: cell-based, human; details: TS21 neurons
Protocol: (§1) Overexpression of DYRK1A in DS is thought to account for increased tau phosphorylation by GSK3β and the increase in DYRK1A positive neurofibrillary tangles (NFTs) in the brains of people with DS and AD. Therefore therapeutic inhibition of DYRK1A activity in DS and AD may delay the progression of neurodegeneration in DS and AD. The following experiment on reduction of tau phosphorylation by inhibition of DYRK1A by inhibitor 4-93 was performed as described in the literature (Shi, Y. et al. A human stem cell model of early Alzheimer's disease pathology in Down syndrome. Sci. Transl. Med. 4, 124ra29 (2012)).
(§2) Neuronal cultures at day 40 were treated with DYRK1A inhibitors and control compounds for 10 days. Total protein was extracted and total tau and phosphorylated tau/MAPT was quantified by Western blotting using antibodies to total tau and a number of phospho-tau epitopes.

[2] = test system: tau/MAPT phosphorylation in control neurons; experiment: Tau/MAPT phosphorylation in control neurons, Western blotting; format: cell-based, human; details: treated for 10 days, compared to DMSO treated controls
Protocol: as §1, §2

GSK3b = GSK3b (Homo sapiens (Human), UniProt P49841); experiment: Kinase profiling, 33P ATP filter binding assay; format: biochemical; details: 1 micromolar inhibitor concentration, read-out: percentage inhibition
Sequence of GSK3b (P49841 whole entry, species assumed): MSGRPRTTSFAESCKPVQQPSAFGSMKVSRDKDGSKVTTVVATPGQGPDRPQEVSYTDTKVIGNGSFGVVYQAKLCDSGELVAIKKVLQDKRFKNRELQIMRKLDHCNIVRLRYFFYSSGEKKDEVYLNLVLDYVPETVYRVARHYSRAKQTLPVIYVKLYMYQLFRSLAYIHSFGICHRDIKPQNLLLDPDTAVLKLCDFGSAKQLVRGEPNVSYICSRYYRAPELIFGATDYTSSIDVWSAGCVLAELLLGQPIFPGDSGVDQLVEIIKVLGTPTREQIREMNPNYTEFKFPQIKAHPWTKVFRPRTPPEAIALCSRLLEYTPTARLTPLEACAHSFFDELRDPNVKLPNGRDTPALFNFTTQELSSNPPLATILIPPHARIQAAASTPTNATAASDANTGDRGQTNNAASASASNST

CLK2 = CLK2 (Homo sapiens (Human), UniProt P49760); experiment: Kinase profiling, 33P ATP filter binding assay; format: biochemical; details: 1 micromolar inhibitor concentration, read-out: percentage inhibition
ROCK 2 = details: 1 micromolar inhibitor concentration
Protocol: (§3) The determination of protein kinase inhibition was performed at the International Centre for Kinase Profiling at the University of Dundee, UK. […] The ATP concentrations were at or below the calculated Km for ATP for each particular kinase.

PHK = details: 1 micromolar inhibitor concentration
Protocol: as §3

AMPK (hum) = details: 1 micromolar inhibitor concentration
From the text: The ATP concentrations were at or below the calculated Km for ATP for each particular kinase.

PINK = details: 1 micromolar inhibitor concentration
Protocol: as §3

[3] = ten days treatment, vs DMSO treated controls or DAPT treated positive controls
[4] = treated for 10 days, normalised to β-actin, vs DMSO treated controls

Sequence of DAPK1 (P53355 whole entry, species assumed): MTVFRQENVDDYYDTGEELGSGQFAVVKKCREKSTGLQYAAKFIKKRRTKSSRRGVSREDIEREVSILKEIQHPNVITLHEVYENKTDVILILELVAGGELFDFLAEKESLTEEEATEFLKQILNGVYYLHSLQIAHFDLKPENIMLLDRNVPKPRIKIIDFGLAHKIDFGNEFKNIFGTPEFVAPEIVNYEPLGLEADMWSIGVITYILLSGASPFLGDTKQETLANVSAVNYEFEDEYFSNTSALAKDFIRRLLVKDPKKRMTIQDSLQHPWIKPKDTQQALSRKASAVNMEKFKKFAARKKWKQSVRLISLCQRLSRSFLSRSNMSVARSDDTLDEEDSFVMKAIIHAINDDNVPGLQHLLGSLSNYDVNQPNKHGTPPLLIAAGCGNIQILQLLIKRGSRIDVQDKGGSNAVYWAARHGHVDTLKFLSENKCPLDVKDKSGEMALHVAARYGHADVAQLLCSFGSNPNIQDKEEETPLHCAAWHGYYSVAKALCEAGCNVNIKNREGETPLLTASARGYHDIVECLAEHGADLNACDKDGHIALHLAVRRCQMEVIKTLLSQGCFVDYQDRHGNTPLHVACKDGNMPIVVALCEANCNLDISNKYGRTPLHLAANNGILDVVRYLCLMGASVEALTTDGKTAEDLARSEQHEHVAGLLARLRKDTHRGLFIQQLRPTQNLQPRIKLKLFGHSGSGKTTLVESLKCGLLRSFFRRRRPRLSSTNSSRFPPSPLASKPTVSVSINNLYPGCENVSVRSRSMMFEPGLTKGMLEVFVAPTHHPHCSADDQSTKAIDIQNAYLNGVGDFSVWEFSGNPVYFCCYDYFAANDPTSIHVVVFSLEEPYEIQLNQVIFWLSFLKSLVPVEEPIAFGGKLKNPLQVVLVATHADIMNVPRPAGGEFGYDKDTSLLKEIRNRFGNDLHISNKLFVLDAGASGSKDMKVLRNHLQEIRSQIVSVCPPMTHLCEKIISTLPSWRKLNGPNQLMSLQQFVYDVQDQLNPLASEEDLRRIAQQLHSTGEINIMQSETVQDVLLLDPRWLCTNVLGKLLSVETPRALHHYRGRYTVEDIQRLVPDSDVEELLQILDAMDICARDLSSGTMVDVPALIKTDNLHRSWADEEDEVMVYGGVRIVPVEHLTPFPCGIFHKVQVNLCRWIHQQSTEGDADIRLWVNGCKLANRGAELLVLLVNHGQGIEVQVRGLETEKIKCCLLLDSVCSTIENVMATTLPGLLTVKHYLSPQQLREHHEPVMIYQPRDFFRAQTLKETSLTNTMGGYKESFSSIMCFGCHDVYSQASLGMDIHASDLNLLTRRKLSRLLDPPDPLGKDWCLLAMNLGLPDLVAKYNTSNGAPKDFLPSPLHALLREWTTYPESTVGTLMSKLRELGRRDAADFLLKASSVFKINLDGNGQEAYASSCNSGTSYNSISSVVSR
Sequence of PAK6 (Q9NQU5 whole entry, species assumed): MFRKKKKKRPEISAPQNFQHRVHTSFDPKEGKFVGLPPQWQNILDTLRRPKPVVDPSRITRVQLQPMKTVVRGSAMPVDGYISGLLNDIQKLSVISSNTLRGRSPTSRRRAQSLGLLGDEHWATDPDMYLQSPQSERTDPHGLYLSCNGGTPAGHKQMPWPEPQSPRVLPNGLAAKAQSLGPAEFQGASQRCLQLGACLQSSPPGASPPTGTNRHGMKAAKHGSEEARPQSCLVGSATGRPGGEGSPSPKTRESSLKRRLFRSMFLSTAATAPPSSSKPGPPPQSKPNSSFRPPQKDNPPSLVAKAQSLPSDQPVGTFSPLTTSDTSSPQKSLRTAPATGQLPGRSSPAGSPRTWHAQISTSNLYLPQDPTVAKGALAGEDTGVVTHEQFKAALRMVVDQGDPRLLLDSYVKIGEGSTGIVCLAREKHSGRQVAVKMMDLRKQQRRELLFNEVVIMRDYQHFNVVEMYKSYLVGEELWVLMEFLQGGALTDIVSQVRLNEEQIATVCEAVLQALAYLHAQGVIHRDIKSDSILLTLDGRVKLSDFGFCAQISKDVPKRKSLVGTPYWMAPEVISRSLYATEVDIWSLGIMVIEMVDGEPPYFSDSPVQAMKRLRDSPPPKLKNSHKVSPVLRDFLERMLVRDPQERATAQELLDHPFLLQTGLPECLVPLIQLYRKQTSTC

COc1ccc2sc(-c3cncc(NC(C)=O)c3)nc2c1 [4-93, N-(5-(5-Methoxybenzo[d]thiazol-2-yl)pyridin-3-yl)acetamide]
inhibition at 1 µM (DAPK1): 0% | inhibition at 1 µM (PAK6): 0% | inhibition at 1 µM (MLK1): 0% | inhibition at 1 µM (ZAP70): 0% | inhibition at 1 µM (DDR2): 2% | phosphorylation of Ser 214 normalised to total tau levels ([1]; ten days treatment): unaffected | phosphorylated tau/MAPT at Ser 396 normalised to total tau levels [1, 3]: significantly lower | phosphorylated tau/MAPT at Ser 404 normalised to total tau levels [1, 3]: significantly lower | tau phosphorylation at Ser 396 [1, 4]: significantly reduced | tau phosphorylation at Ser 404 [1, 4]: significantly reduced | phosphorylation at Ser 214 ([1]; treated for 10 days, site not phosphorylated by DYRK1A): do not affect | tau/MAPT phosphorylation at Ser 396 [2]: slight increase | tau/MAPT phosphorylation at Ser 404 [2]: slight increase

CS(=O)(=O)Nc1cncc(-c2nc3cc(O)ccc3s2)c1 [4-99, N-(5-(5-Hydroxybenzo[d]thiazol-2-yl)pyridin-3-yl)methanesulfonamide]
inhibition at 1 µM (DAPK1): 0% | inhibition at 1 µM (GSK3b): 0% | inhibition at 1 µM (CLK2): 44% | inhibition at 1 µM (PAK6): 0% | inhibition at 1 µM (MLK1): 0% | inhibition at 1 µM (ZAP70): 0% | inhibition at 1 µM (DDR2): 0% | percentage inhibition (ROCK 2): 0% | percentage inhibition (PHK): 0% | percentage inhibition (AMPK (hum)): 0% | percentage inhibition (PINK): 0%

— patent publication US10927106B2, “Benzothiazole derivatives as DYRK1 inhibitors” (PHARMASUM THERAPEUTICS AS, priority 2017, dated 2021)
